Data: patent US20260159546A1, “PHARMACEUTICAL COMPOSITION FOR TREATING SEPSIS INCLUDING DUAL ALARMIN-RECEPTOR-SPECIFIC TARGETING PEPTIDE” (Industry-University Cooperation Foundation Hanyang …, priority 2024, published 2026)
Like-named read-outs stand apart in the source and are kept apart here. Ends that are not written are not given here.

Assays:
Format in all cases: cell-based, mouse
BMDMs [1] = assay: In vitro cell viability study (Quanti-Max) on BMDMs
Experimental: Primary bone marrow-derived macrophages (BMDMs) were isolated from female C57BL/6 mice and cultured for five to seven days in a medium supplemented with macrophage-colony stimulating factor (M-CSF) for differentiation. HEK293T cells were acquired from the American Type Culture Collection (ATCC). Both BMDMs and HEK293T cells were cultured in Dulbecco's modified Eagle's medium (DMEM, GenDEPOT Inc., USA) supplemented with 10% fetal bovine serum (FBS), penicillin (100 U/mL), and streptomycin (100 μg/mL).
BMDMs were plated on 96-well plates (SPL Life Science Co. Ltd., Republic of Korea) at a density of 2×10^4 cells/well and incubated in complete DMEM for 18 h. Thereafter, the cells were treated with various concentrations of H-T, H-R, P-T, P-M peptides, control, TMR, or TMR using Abs Lipo. After 48 h of incubation, the medium was replaced with 100 μl of DMEM and the Quanti-Max solution (10% of each media volume). After two hours of incubation at 37° C. and 5% CO2, the absorbance of the plates including the Quanti-Max solution was measured at 450 nm using the MMR SPARK® microplate reader (TECAN Group Ltd., Switzerland).

[2] = test system: LPS-induced cytokine production in BMDMs; assay: Cytokine ELISA in supernatant of LPS-treated BMDMs; conditions: LPS 100 ng/mL, 18 h
Source text: FIG. 2. Preparation of TLR4/MD2/RAGE-interacting motifs of HMGB1 or PTX3; • (A and B) Schematic diagram of HMGB1 (A) and PTX3 (B) domains. Glutathione s-transferase (GST)-tagged truncates including the TLR4-, RAGE-, or MD2-binding domains of HMGB1 or PTX3 were constructed. […] HEK293T cells transfected with the GST-tagged constructs in combination with HA-TLR4, Myc-RAGE or His-MD2 were confirmed by GST-pulldown. Western blots of WCLs and eluates after GST-pulldown are shown, using glyceraldehyde 3-phosphate dehydrogenase (GAPDH) as a loading control in WCLs. Based on the pulldown binding results, TLR4-, MD2-, and RAGE-targeted peptides were constructed and prepared as an H-T, H-R, P-T, or P-M peptide (indicated in panels A and B); • (C) BMDMs were incubated with the H-T, H-R, P-T, or P-M peptide at the indicated concentrations for 48 h, and then cell viability was measured by a cell viability assay. […] They were immunoprecipitated with αFlag for two hours, separated by sodium dodecyl sulfate-polyacrylamide gel electrophoresis (SDS-PAGE), and evaluated by immunoblotting; • (E) Competition between rHMGB1 (top) or PTX3 (bottom) and the constructed peptides for their respective receptors. […] TNF-α, IL-6, IL-12p40, and IL-10 levels in the supernatant of the indicated peptide-treated BMDMs, along with LPS (100 ng/mL, 18 h), were determined by ELISA. […]

BMDMs [3] = assay: Cytokine ELISA in BMDMs stimulated with recombinant alarmins; conditions: BMDMs treated with recombinant alarmin 2, 5 μg/mL
Source text: FIG. 1. Interaction of extracellular high-mobility group protein B1 (HMGB1) and (pentraxin 3) PTX3 with toll-like receptor 4 (TLR4) or receptor for advanced glycation end products (RAGE) in murine macrophages; • (A and B) Release of HMGB1 (A) or PTX3 (B) from murine macrophages after stimulation with lipopolysaccharide (LPS). LPS-induced HMGB1 (A) or PTX3 (B) release from murine macrophages. Immunoblots (IB) for HMGB1 and PTX3 in the cell lysates in LPS-treated bone marrow-derived macrophages (BMDMs) and the supernatant at indicated time points after LPS (100 ng/ml); • (C and D) Interaction between HMGB1 (C) or PTX3 (D) with receptors thereof. HEK293T cells were transfected with constructs, and cell lysates were immunoprecipitated with a Flag-tag-specific antibody and analyzed by immunoblotting (IB) with the indicated antibodies. […] Immunoprecipitants and whole cel lysates (WCL) were analyzed by immunoblotting with the indicated antibodies; • (E) TNF-α, IL-6, IL-12p40, and IL-10 levels in the supernatant of LPS (100 ng/ml, 18 h) or recombinant alarmins (rHMGB1 or rPTX3, each (2, 5 μg/mL))-treated BMDMs determined by enzyme-linked immunosorbent assay (ELISA). The data shown represents at least three independent experiments (n≥3), and bars denote mean±SEM (****p<0.001), and significance was measured by two-way analysis of variance (ANOVA); […]

[4] = BMDMs, 48 h incubation, various concentrations

AAYRAKGKPD [H-R]
viability of BMDMs (BMDMs [1]; [4]): almost no impact

ALAAVLEELR [P-M]
viability of BMDMs (BMDMs [1]; [4]): almost no impact

FKDPNAPKRP [H-T]
viability of BMDMs (BMDMs [1]): almost no impact

PAEARLTSAL [P-T]
viability of BMDMs (BMDMs [1]; [4]): almost no impact

TMR peptide: fusion peptide of SEQ ID NO: 2 to 5 joined by GG linkers, FKDPNAPKRPGGAAYRAKGKPDGGPAEARLTSALGGALAAVLEELR
production of inflammatory cytokines (TNF-α, IL-6, IL-12p40) [2]: significantly reduced

rPTX3: recombinant alarmin protein pentraxin 3 [reference compound]
levels of TNF-α, IL-6, IL-12p40 and IL-10 (BMDMs [3]): elevated levels

B1: rHMGB1: recombinant alarmin protein high-mobility group protein B1 (protein, UniProt P09429 1-215, looked up)
High mobility group protein B1: MGKGDPKKPRGKMSSYAFFVQTCREEHKKKHPDASVNFSEFSKKCSERWKTMSAKEKGKFEDMAKADKARYEREMKTYIPPKGETKKKFKDPNAPKRPPSAFFLFCSEYRPKIKGEHPGLSIGDVAKKLGEMWNNTAADDKQPYEKKAAKLKEKYEKDIAAYRAKGKPDAAKKGVVKAEKSKKKKEEEEDEEDEEDEEEEEDEEDEDEEEDDDDE
modifications: Flag tag
levels of TNF-α, IL-6, IL-12p40 and IL-10 (BMDMs [3]): elevated levels
